Experimental data reported in patent publication US20110003796A1, “METHOD FOR THE TREATMENT OF PSYCHIC DISORDERS” (Consejo Nacional de Investigaciones Cientificas y Tecnicas …, priority 2009, published 2011).
“Also recorded” adds a separate entry of the source. Where a name gives a salt, the structure may show the parent alone.

Experiments:
[1] = tested on: rats; test: Open field test (locomotor activity); format: in vivo, rat (male Wistar)
Protocol: These studies were performed exactly the same way as the studies of FST had been carried. All rats that experimented the first day of FST (pre-test), received the different treatments during 16 days. On day 17 they were placed in the cage of open field (60×60×60 cm) with the floor divided in squares (15×15 cm). The tests were performed between 14:00 and 17:00 hours, illuminated with an electric bulb of 75 W and placed 75 cm above the floor of the cage, in a quiet room. The locomotion was measured by the number of squares they enter with the four legs (counts), over a period of 5 minutes. After withdrawing the animal, the open field was carefully cleaned with a damp wipe.

[2] = Body weight gain during chronic treatment; format: in vivo, rat (male Wistar)
Protocol: Tests were performed to analyze the body weight gain during chronic treatments with antidepressants and/or omega-3 fatty acids.
(§1) The experiments were carried out with male Wistar rats with a body weight of 200-386 g. Rats were kept in a cycle of 12 hours of light (8:00 a 20:00) and 12 hours of darkness with free access to water and food except during the tests. The rats were divided in four groups, housed in individual polyethylene cages of with three or four rats each (55×38×30 cm) and fed with standard diet for the controls (C) or diet supplemented with omega-3 fatty acids (ω3). The animals were used only once in each test. All tests were performed in agreement with the Guidelines for the Care and Use of Laboratory Animals provided by National Institutes of Health of United States of America.

[3] = tested on: rats; test: Forced swimming test (FST); format: in vivo, rat (male Wistar); conditions: for climbing in FST / immobility in FST / swimming in FST: 16 days
Protocol: as §1
The Fluoxetine Hydrochloride (FLX) and mirtazapine (MTZ) were administered intra-peritoneally (IP) in a volume equivalent to 1 cc/kg and were freshly prepared each morning. The FLX was dissolved in distilled water and MZT was solubilized in isotonic saline (0.9% NaCl) plus three or four drops of glacial acetic acid to dissolve this solution. […] All control rats were given injections of saline.
In all cases antidepressant drugs or the saline solution were given once a day for 16 days, the final injection was given 24 hours before the test session (FIGS. 6 and 18).
The omega-3 fatty acids were given as diet supplement in the food enriched with salmon oil for 16 days. Each 1000 mg of highly concentrated salmon oil contains about 30% of omega-3, from which 17% is EPA and 13% is DHA; therefore there were 40 mg of omega-3 fatty acids per gram of enriched food. Rats of the ω3 group received a dose of about 0.72 g/kg/day of omega-3 fatty acids.
The swimming sessions were carried out placing the rats in Plexiglas cylinders (46 cm of height and 20 cm of diameter) which had been previously filled with water (23-25° C.) to 30 cm from the bottom. All swimming sessions were performed between 12:00 and 18:00 hours.
Two sessions were performed: an initial pre-test for 15 minutes followed by a 5-minute test, after 16 days. The drugs were given between both sessions.
Rats were studied at 5-second intervals during the session of forced swimming session. At each interval of 5 seconds, the predominant behavior was assigned to one of the following categories: (1) immobility: flotation in water without fighting, only doing the necessary movements to keep the head out of the water; (2) swimming, making the movements of active swimming, plus the ones necessary to keep simply the head out of the water (i.e., moving around the cylinder); and (3) climbing, making active movements with fore hints out of the water, usually against walls. The scoring for each behavior was expressed as the total of records per session of 5 minutes.

[4] = tested on: rats; conditions: cited from earlier work; for antidepressant effect in prior studies: FLX 1 mg/kg, MTZ 1 mg/kg; for effect on the FST in prior studies: FLX 10 mg/kg, MTZ 20 mg/kg, similar test conditions
[5] = mirtazapine 20 mg/kg ip and/or omega-3 0.72 g/kg
[6] = fluoxetine 10 mg/kg ip and/or omega-3 0.72 g/kg

| Structure (SMILES) | spontaneous locomotor activity in open field ([1]; mirtazapine 1 mg/kg and/or omega-3 0.72 g/kg/day) | spontaneous locomotor activity in open field test ([1]; mirtazapine 20 mg/kg and/or omega-3 0.72 g/kg) | body weight gain ([2]; mirtazapine 20 mg/kg and/or omega-3 0.72 g/kg, chronic) | body weight gain ([2]; mirtazapine sub-optimal dose 1 mg/kg and/or omega-3 0.72 g/kg, 1 mg/kg) | body weight gain ([2]; mirtazapine sub-optimal dose 1 mg/kg and/or omega-3 0.72 g/kg, listed as Mirtazapine, 1 mg/kg) | climbing in FST [3, 5] | immobility in FST [3, 5] | swimming in FST [3, 5] | time of immobility in FST ([3]; mirtazapine sub-optimal dose 1 mg/kg ip and/or omega-3 0.72 g/kg/day, vs control) | antidepressant effect in prior studies [4] | effect on the FST in prior studies [4] | spontaneous locomotor activity in open field ([1]; fluoxetine 1 mg/kg and/or omega-3 0.72 g/kg) | spontaneous locomotor activity in open field test ([1]; fluoxetine 10 mg/kg and/or omega-3 0.72 g/kg) | body weight ([2]; fluoxetine 10 mg/kg and/or omega-3 0.72 g/kg, vs control group) | body weight gain ([2]; fluoxetine sub-optimal dose 1 mg/kg) | effect of treatment on behaviors in FST ([3]; fluoxetine 1 mg/kg ip alone, two-factor ANOVA) | climbing in FST [3, 6] | immobility in FST [3, 6] | swimming in FST [3, 6] | effect of treatment on the FST ([3]; fluoxetine sub-optimal doses lower than 1 mg/kg (0.1 and 0.5 mg/kg) alone) |
| --- | --- | --- | --- | --- | --- | --- | --- | --- | --- | --- | --- | --- | --- | --- | --- | --- | --- | --- | --- | --- |
| CN1CCN2c3ncccc3Cc3ccccc3C2C1 (stereo not shown) [mirtazapine] | did not interfere with the locomotor activity | did not interfere with the responses of locomotor activity | significantly reduced the body weight gain; also recorded: significant decrease in body weight | does not interfere with the weight gain | did not produce any effect | increase | significantly reduced the immobility | corresponding increase in the swimming | did not significantly change the time of immobility | not showing an antidepressant effect | produce a more robust effect on the FST |  |  |  |  |  |  |  |  |  |
| CNCCC(Oc1ccc(C(F)(F)F)cc1)c1ccccc1 (stereo not shown) [fluoxetine, Fluoxetine Hydrochloride] |  |  |  |  |  |  |  |  |  | not showing an antidepressant effect | produce a more robust effect on the FST | None of these treatments with antidepressant effects in the FST affected the levels of activity | None of these treatments with antidepressant effects in the FST affected the activity levels | Body weight was significantly lower | Body weight gain was reduced although in a lesser extend | no effect of treatment with FLX | without modifying the behavioral levels of climbing | reduces immobility | increases swimming | did not have any effect on the FST |
